Measurements as given in patent US10875852B2, “Heteroaromatic compounds as BTK inhibitors” (Boehringer Ingelheim International GmbH, priority 2012, dated 2020).
pIC50: −log10 of the molar value.

Target: full-length human His-tagged BTK (Homo sapiens (Human), UniProt Q06187)
Test: BTK HTRF assay (Cisbio KinEASE-TK)
Type: biochemical
Details: 6 nM BTK, 30 uM ATP, 15 min preincubation
Procedure: An HTRF assay (Cisbio KinEASE-TK cat #62TK0PEC) was performed to quantitate the ability of test compounds to inhibit BTK mediated phosphorylation of substrate. Assays were assembled in 384 well plates where 6 nM of full-length human His-tagged BTK (Life Technologies cat # PV3587) and test compound at varying concentrations were preincubated for 15 minutes at 28° C. Then, 1 uM of TK substrate-biotin and 30 uM ATP were added and incubated for an additional 30 minutes at 28° C.

Chain of full-length human His-tagged BTK (Q06187 whole entry): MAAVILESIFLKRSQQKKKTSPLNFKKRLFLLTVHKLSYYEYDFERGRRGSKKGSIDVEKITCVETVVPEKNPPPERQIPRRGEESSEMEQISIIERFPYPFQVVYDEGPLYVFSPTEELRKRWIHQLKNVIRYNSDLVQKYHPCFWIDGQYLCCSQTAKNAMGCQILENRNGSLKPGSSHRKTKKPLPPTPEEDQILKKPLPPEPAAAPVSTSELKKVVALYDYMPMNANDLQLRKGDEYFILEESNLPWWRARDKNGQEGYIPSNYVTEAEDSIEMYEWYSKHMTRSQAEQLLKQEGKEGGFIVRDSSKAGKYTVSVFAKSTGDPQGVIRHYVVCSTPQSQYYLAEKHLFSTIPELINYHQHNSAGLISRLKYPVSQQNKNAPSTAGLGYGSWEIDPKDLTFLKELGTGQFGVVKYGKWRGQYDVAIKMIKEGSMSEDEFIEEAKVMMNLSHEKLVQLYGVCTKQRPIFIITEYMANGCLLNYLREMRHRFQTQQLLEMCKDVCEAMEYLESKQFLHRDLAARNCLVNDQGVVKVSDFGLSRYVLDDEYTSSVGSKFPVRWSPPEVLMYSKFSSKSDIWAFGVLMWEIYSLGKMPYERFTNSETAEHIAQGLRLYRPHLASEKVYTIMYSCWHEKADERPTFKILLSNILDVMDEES

pIC50: 7.70
SMILES: C=CC(=O)N1CC[C@]2(C1)C[C@H](n1nc(-c3ccc(OC)cc3Cl)c(C(N)=O)c1N)C2 [Example 159]
